{"source": "PubChem BioAssay AID1902", "about": "(Broad Institute, 2009)", "note": "Activity calls are given as the source filed them.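 The calls were made as follows: active = EC50 no more than a set limit of log units above the highest dose; inactive = the rest.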", "data": [{"target": "S. pyogenes SKKanGAS, kanamycin survival, BacTiterGlo, 6 h", "assay": "S. pyogenes SKKanGAS kanamycin growth inhibitors – SKKanGAS strain, luminescence, dose confirmation, streptokinase promoter inhibitor project, dose response (AID 1902);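 also: lower survival reflects blocked streptokinase promoter driving kanamycin resistance gene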", "values": [{"compound": "COc1cc(C(=O)NNC(=S)NC(=O)c2ccc3c(c2)OCO3)cc(OC)c1OC", "EC50": "1.63 µM"}, {"compound": "Oc1ccc(/C=N/Nc2nc(N3CCCCCC3)nc(N3CCCCCC3)n2)c(O)c1", "EC50": "1.73 µM"}, {"compound": "Cn1c2ccccc2c(=O)c2c(=O)n(C3CCCCC3)c(-c3cccs3)nc21", "EC50": "7.03 µM"}, {"compound": "CCn1cc(C(=O)O)c(=O)c2cc(F)c(N3CCN(C(=S)NC(=O)c4cc(OC)cc(OC)c4)CC3)cc21", "EC50": "2.91 µM"}, {"compound": "CC(=O)N1CCc2cc(S(=O)(=O)N3CCc4ccccc43)ccc21", "EC50": "> 15 µM (inactive)"}, {"compound": "Cc1cccc(Nc2nc(N)nc(CN3CCN(c4ccc(F)cc4)CC3)n2)c1", "EC50": "15.6 µM"}, {"compound": "COC(C(=O)Nc1ccnn1C1CCN(Cc2nccs2)CC1)c1ccccc1", "note": "(stereo not drawn)", "EC50": "> 15 µM (inactive)"}, {"compound": "COc1ccccc1-c1nnc(NC(=O)c2ccc(S(=O)(=O)N(C)CC3CCCO3)cc2)o1", "note": "(stereo not drawn)", "EC50": "8.41 µM"}, {"compound": "COc1ccc(NS(=O)(=O)c2cccc(NC(=O)CCC(=O)c3ccc(Cl)cc3)c2)cc1", "EC50": "7.85 µM"}, {"compound": "Oc1ccc(Br)cc1/C=N/Nc1ncc(-c2ccccc2)cn1", "EC50": "1.7 µM"}, {"compound": "O=C(CSc1nc2ccccc2c(=O)n1NC(=O)c1ccccc1)c1ccc(Cl)cc1", "EC50": "11.3 µM"}, {"compound": "Nc1c(S(=O)(=O)c2cccs2)c2nc3ccccc3nc2n1/N=C/c1cccc(O)c1", "EC50": "4.53 µM"}, {"compound": "COC(=O)c1ccc(N2CCN(C)CC2)c(NC(=O)COc2ccc(C)cc2)c1", "EC50": "> 15 µM (inactive)"}, {"compound": "O=c1cc(CSc2ccc(Cl)cc2)nc(-c2ccccn2)[nH]1", "EC50": "0.371 µM"}, {"compound": "O=C(Nc1nnc(SCc2ccc(F)cc2)s1)c1ccc2c(c1)C(=O)N(c1ccccc1Cl)C2=O", "EC50": "6.26 µM"}, {"compound": "CCc1nc(SCC(=O)N2c3ccccc3CC2C)c2c(C)c(C)sc2n1", "note": "(stereo not drawn)", "EC50": "8.61 µM"}, {"compound": "CC(=O)NC[C@H]1CN(c2ccc(N3CCOCC3)c(F)c2)C(=O)O1", "EC50": "0.158 µM"}, {"compound": "CCCCn1c(O)c(C(CC)=Nc2ccc3c(c2)CCC3)c(=O)[nH]c1=O", "EC50": "6.01 µM"}, {"compound": "O=C(Nc1cc(Cl)cc(Cl)c1)Nc1cnccn1", "EC50": "4.85 µM"}, {"compound": "Fc1cc(F)c(C2SCCN2C(=S)Nc2cccc(C(F)(F)F)c2)c(F)c1", "note": "(stereo not drawn)", "EC50": "8.26 µM"}, {"compound": "N=C1/C(=C\\c2ccc(-c3cccc(C(=O)O)c3)o2)C(=O)N=C2SC=C(c3ccccc3)N12", "EC50": "1.2 µM"}, {"compound": "COc1ccc2cc(C(=O)C3CCCN(Cc4cccc(C)n4)C3)ccc2c1", "note": "(stereo not drawn)", "EC50": "1.84 µM"}, {"compound": "CCOc1ccc(/C=N/NC(=S)NC2CC3C=CC2C3)cc1", "note": "(stereo not drawn)", "EC50": "> 15 µM (inactive)"}, {"compound": "O=C(O)c1ccc(N/N=C/c2ccc(OC(=O)c3cccc(Cl)c3)cc2)cc1", "EC50": "1.4 µM"}, {"compound": "CCCCCc1ccc(OCCCC[n+]2ccccc2)c(CCCCC)c1", "EC50": "7.07 µM"}, {"compound": "CCCCc1c(C)nn(-c2nnc3c4ccccc4n(CC)c3n2)c1C", "EC50": "1.84 µM"}, {"compound": "C/C(=N/Nc1cc(-c2ccccc2)nc(-c2ccccc2)n1)c1ccc(O)cc1", "EC50": "2.08 µM"}, {"compound": "Cc1nn(CC(=O)NC2C(=O)N3C(C(=O)O)=C(CSc4nnnn4C)CSC23)cc1Br", "note": "(stereo not drawn)", "EC50": "< 0.06 µM"}, {"compound": "Cc1c(Cl)c([N+](=O)[O-])nn1Cc1ccc(C(=O)N/N=C\\c2cc(Cl)ccc2O)o1", "EC50": "1.48 µM"}, {"compound": "CCCCCCCCOC(=O)C1=C(C)Nc2nnnn2C1c1cccs1", "note": "(stereo not drawn)", "EC50": "3.45 µM"}, {"compound": "Oc1c(Br)cc(Br)cc1Oc1ccc(Br)cc1Br", "EC50": "1.77 µM"}, {"compound": "CCC1=NN2C(=N)/C(=C\\c3cccn3-c3ccc(C)c(C)c3)C(=O)N=C2S1", "EC50": "3.91 µM"}, {"compound": "Cc1cc(C)n(-c2nc(NCCCO)c3c4c(sc3n2)CCCC4)n1", "EC50": "2.2 µM"}, {"compound": "Cc1[nH]n(-c2ncc(-c3ccccc3)s2)c(=O)c1C(c1ccc(Br)cc1)C(C#N)C#N", "note": "(stereo not drawn)", "EC50": "5.83 µM"}, {"compound": "COc1ccc2oc(C(=O)Nc3nc4ccccc4[nH]3)c(C)c2c1", "EC50": "5.62 µM"}, {"compound": "O=C(Nc1nccs1)c1sc2ccccc2c1Cl", "EC50": "> 15 µM (inactive)"}, {"compound": "O=C(C[n+]1cnn(CC(=O)c2ccc(Cl)cc2Cl)c1)c1ccc([N+](=O)[O-])cc1", "EC50": "12.3 µM"}, {"compound": "O=C(/C=C/c1cccc(C(F)(F)F)c1)Nc1cccc(C(F)(F)F)c1", "EC50": "3.3 µM"}, {"compound": "CCS(=O)(=O)N1Cc2ccccc2CC1C(=O)Nc1nnc(SCc2ccc(F)cc2)s1", "note": "(stereo not drawn)", "EC50": "2.35 µM"}, {"compound": "CN=C(Nc1cc(Cl)ccc1Cl)SC1CC(=O)N(c2ccc(C(=O)OC)cc2)C1=O", "note": "(stereo not drawn)", "EC50": "7.4 µM"}, {"compound": "O=[N+]([O-])c1ccc(Nc2nc(NCCO)nc(N3CCCC3)n2)cc1", "EC50": "5.91 µM"}, {"compound": "Cc1cc(=O)c(C(=O)O)cn1Nc1ccc(Cl)cc1", "EC50": "2.36 µM"}, {"compound": "COc1ccc(CCNC(=O)c2cccc(NS(=O)(=O)c3ccccc3F)c2)cc1OC", "EC50": "> 15 µM (inactive)"}, {"compound": "CC(Oc1ccc(F)cc1)C(=O)Nc1ccccc1N1CCCCC1", "note": "(stereo not drawn)", "EC50": "5.01 µM"}, {"compound": "Cc1ccccc1/C=C/C(=O)c1ccc([N+](=O)[O-])o1", "EC50": "4.61 µM"}, {"compound": "CCC(C)(C)c1ccc(OCCCC[n+]2cccc(C)c2)c(C(C)(C)CC)c1", "EC50": "7.73 µM"}, {"compound": "CC1CC(C)(C)n2c(O)c(N=NC(N)=S)c3cccc1c32", "note": "(stereo not drawn)", "EC50": "4.84 µM"}, {"compound": "COc1cccc(C(=O)Nc2nc(-c3ccccc3)c(-c3ccccc3)o2)c1", "EC50": "0.881 µM"}, {"compound": "CCSc1nsc(NC(=O)Nc2cccc(F)c2)n1", "EC50": "7.63 µM"}, {"compound": "Nc1c(-c2ccccc2)c(CSc2nc3ccccc3[nH]2)nn1-c1cccc(Cl)c1", "EC50": "1.51 µM"}, {"compound": "CN=C1S/C(=C\\c2ccc(N3CCOCC3)c(F)c2)C(=O)N1C", "EC50": "4.94 µM"}, {"compound": "COCCOC(=O)c1c(C)nc(SCC(=O)Nc2ccc(C)cc2)c(C#N)c1-c1ccco1", "EC50": "6.68 µM"}, {"compound": "Cc1cc(C)nc(NC(N)=NCCc2c[nH]c3ccccc23)n1", "EC50": "11.6 µM"}]}]}
